Reference: ChEMBL document CHEMBL1201862, “PubChem BioAssay data set” (2004)
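All cell lines were grown in 96-well plates and treated with compound for 48 hours. The concentration for 50% growth inhibition is given as GI50.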 The source made the active and inactive calls. Rule as the data show it: active = GI50 up to about 1.1 µM and inactive = higher.

Columns and labels:
Experiment in all cases: NCI-60 cell line screen, 48 h
NCI-H460 = tested on: NCI-H460
HCC 2998 = tested on: HCC 2998
COLO 205 = tested on: COLO 205
TK-10 = tested on: TK-10
HT-29 = tested on: HT-29
SK-MEL-2 = tested on: SK-MEL-2
OVCAR-8 = tested on: OVCAR-8
SK-MEL-5 = tested on: SK-MEL-5
SN12C = tested on: SN12C
HCT-15 = tested on: HCT-15
HOP-92 = tested on: HOP-92
RPMI-8226 = tested on: RPMI-8226
SK-OV-3 = tested on: SK-OV-3
MOLT-4 = tested on: MOLT-4
LOX IMVI = tested on: LOX IMVI
CAKI-1 = tested on: CAKI-1

Measured: GI50

COc1cc2c3c(c1OC)C1(C=CC(=O)C=C1)C[C@H]3N(C)CC2 [PRONUCIFERINE]
> 100 µM: HCT-15
inactive: NCI-H460 > 100 µM | HCC 2998 > 100 µM | COLO 205 > 100 µM | TK-10 > 100 µM | HT-29 > 100 µM | SK-MEL-2 > 100 µM | OVCAR-8 > 100 µM | SK-MEL-5 > 100 µM | SN12C > 100 µM | HOP-92 > 100 µM | RPMI-8226 > 100 µM | SK-OV-3 > 100 µM | MOLT-4 > 100 µM | LOX IMVI > 100 µM

O=C(O)c1oc2ccc([N+](=O)[O-])c3c2c1CCC3
inactive: NCI-H460 > 100 µM | HCC 2998 > 100 µM | COLO 205 > 100 µM | CAKI-1 > 100 µM | TK-10 > 100 µM | HT-29 > 100 µM | SK-MEL-2 > 100 µM | OVCAR-8 > 100 µM | SN12C > 100 µM | HOP-92 27.7 µM | LOX IMVI > 100 µM

C[N+]1(C)C/C(=C\c2ccccc2)C(=O)/C(=C/c2ccccc2)C1
inactive: NCI-H460 > 100 µM | HCC 2998 > 100 µM | COLO 205 > 100 µM | TK-10 > 100 µM | HT-29 > 100 µM | OVCAR-8 > 100 µM | SK-MEL-5 72.8 µM | SN12C 18.5 µM | HOP-92 > 100 µM | RPMI-8226 51.2 µM | SK-OV-3 > 100 µM | MOLT-4 32.8 µM
> 100 µM: HCT-15

O=C(Nc1nc2ncn(CC(COc3ccccc3)OC(=O)c3ccccc3)c2c(=O)[nH]1)c1ccccc1 (centres undefined)
inactive: CAKI-1 > 100 µM | HT-29 > 100 µM | SK-MEL-2 > 100 µM | OVCAR-8 > 100 µM | SK-MEL-5 > 100 µM | SN12C > 100 µM | RPMI-8226 > 100 µM | SK-OV-3 > 100 µM | MOLT-4 > 100 µM | LOX IMVI > 100 µM
> 100 µM: HCT-15

COc1ccc2c3c(c(C(=O)O)oc13)CCC2
> 100 µM: HCT-15
inactive: NCI-H460 > 100 µM | HCC 2998 > 100 µM | COLO 205 > 100 µM | TK-10 > 100 µM | HT-29 > 100 µM | SK-MEL-2 > 100 µM | OVCAR-8 > 100 µM | SK-MEL-5 > 100 µM | SN12C > 100 µM | HOP-92 > 100 µM | RPMI-8226 > 100 µM | SK-OV-3 > 100 µM | MOLT-4 > 100 µM | LOX IMVI > 100 µM

CC(=O)O/C(C)=C\C(=O)O/N=C(\N)c1ccc(C)cc1
inactive: NCI-H460 29.6 µM | HCC 2998 > 100 µM | COLO 205 27.9 µM | CAKI-1 > 100 µM | TK-10 63.8 µM | HT-29 35.6 µM | SK-MEL-2 28.6 µM | OVCAR-8 36.6 µM | SK-MEL-5 22.3 µM | SN12C 22 µM | HOP-92 33.7 µM | RPMI-8226 31 µM | SK-OV-3 > 100 µM | MOLT-4 23.1 µM | LOX IMVI 34.4 µM

CSC1(C)CC2C(CC1N1CCCCC1)C2(C)C (centres undefined)
inactive: NCI-H460 > 100 µM | HCC 2998 > 100 µM | COLO 205 > 100 µM | TK-10 > 100 µM | HT-29 > 100 µM | SK-MEL-2 > 100 µM | OVCAR-8 > 100 µM | SN12C > 100 µM | HOP-92 > 100 µM | RPMI-8226 > 100 µM | SK-OV-3 > 100 µM | MOLT-4 > 100 µM
> 100 µM: HCT-15

c1ccc(C2CC(c3ccc4ccccc4c3)=Nc3ccccc3S2)cc1 (centres undefined)
inactive: NCI-H460 15.7 µM | HCC 2998 11.9 µM | CAKI-1 > 10 µM | TK-10 22.3 µM | HT-29 17.1 µM | SK-MEL-2 18.1 µM | OVCAR-8 16.3 µM | SK-MEL-5 18.9 µM | SN12C 16.7 µM | RPMI-8226 3.26 µM | SK-OV-3 38.5 µM | MOLT-4 30.4 µM | LOX IMVI 15.7 µM

O=C(c1ccc(Cl)cc1)N(C(=S)N1CCN(c2ccccc2)CC1)c1ccccc1
inactive: NCI-H460 > 100 µM | COLO 205 > 100 µM | CAKI-1 > 100 µM | TK-10 > 100 µM | HT-29 > 100 µM | SK-MEL-2 > 100 µM | OVCAR-8 > 100 µM | SK-MEL-5 > 100 µM | SN12C > 100 µM | HOP-92 > 100 µM | RPMI-8226 > 100 µM | SK-OV-3 > 100 µM | MOLT-4 > 100 µM | LOX IMVI > 100 µM
> 100 µM: HCT-15

O=C1CC(C[C@H](O)C2CCCCC2O)CC(=O)N1Cc1ccccc1 (some centres undefined)
inactive: NCI-H460 > 100 µM | HCC 2998 > 100 µM | COLO 205 > 100 µM | CAKI-1 > 100 µM | TK-10 > 100 µM | HT-29 > 100 µM | SK-MEL-2 > 100 µM | OVCAR-8 > 100 µM | SK-MEL-5 > 100 µM | SN12C > 100 µM | SK-OV-3 > 100 µM | MOLT-4 > 100 µM | LOX IMVI > 100 µM
